From patent publication US4775758A, “Phospholipids” (Takeda Chemical Industries, Ltd., priority 1983, dated 1988)

Tests used:
sarcoma 180 cells [1] = test: Antitumor activity (simultaneous administration), intraperitoneal sarcoma 180, life span; assay type: in vivo, ICR mice; details: for rate of life prolongation against the control group: 1 mg/mouse i.p. after i.p. transplantation of 1×10^5 sarcoma 180 cells, ICR mice
Description: Antitumor activity (simultaneous administration) of 1,3-dioctyloxypropane-2-yl 2-trimethylammonioethyl phosphate (Example 1)
Sarcoma 180 cells (1×10^5 cells per mouse) was transplanted intraperitoneally to ICR mice (a group consisting of 5 mice). Subsequently, the compound of Example 1 (1 mg/mouse) was dissolved in physiological saline, and administered intraperitoneally to each of the mice. In the group given the drug compound, two mice survived 60 days, and the rate of life prolongation against the control group not given the drug compound was 458.

Saccharomyces cerevisiae = test: Antifungal action, MIC by serial dilution technique; assay type: cell-based; details: 1% glucose bouillon agar
Mucor spinescens = test: as above; assay type: cell-based; details: 1% glucose bouillon agar
sarcoma 180 cells [2] = test: Antitumor activity, subcutaneous sarcoma 180, intraperitoneal administration, tumor weight; assay type: in vivo; details: 0.2 mg/mouse i.p., 13 times, 2nd to 20th day; tumor weight on 21st day; sarcoma 180 s.c., ICR mice
Description: (§1) Antitumor activity of 1,3-dioctyloxypropane-2-yl 2-trimethylammonioethyl phosphate (Example 1)
Sarcoma 180 cells (1×10^6 cells) were transplanted subcutaneously to each of ICR mice (a group consisting of 5 mice). The compound of Example 1 was administered intraperitoneally to the mice at the single dose rate of 0.2 mg/mouse 13 times over the period of from the 2nd day to the 20th day. On the 21th day, the mice were anatomized, and the weight of tumors was measured.

sarcoma 180 cells [3] = test: Antitumor activity (pre-administration), intraperitoneal sarcoma 180, life span; assay type: in vivo; details: 1 mg/mouse i.p., 4 days before i.p. transplantation of 1×10^5 sarcoma 180 cells; ICR mice
Description: Antitumor activity (pre-administration) of 1,3-dioctyloxypropane-2-yl 2-trimethylammonioethyl phosphate (Example 1)
A 1 mg/mouse of the compound of Example 1 was admixed with physiological saline, and administered intraperitoneally to ICR mice (a group consisting of 5 mice). Four days later, 1×10^5 sarcoma 180 cells per mouse was transplanted intraperitoneally to each of the mice.

Cladosporium herbarum = test: Antifungal action, MIC by serial dilution technique; assay type: cell-based; details: 1% glucose bouillon agar
Description: (§2) Antifungal action of 1,3-dioctyloxypropane-2-yl 2-trimethylammonioethyl phosphate (Example 1)
(§3) Using typical fungi, the minimal inhibition concentrations (MIC) were determined with the compound of Example 1 by the serial dilution technique on a 1% glucose bouillon agar culture medium.

Diaporthe citri = test: as above; assay type: cell-based; details: 1% glucose bouillon agar
Description: as §2, §3

Botrytis cinerea = test: as above; assay type: cell-based; details: 1% glucose bouillon agar
Description: as §2, §3

Elsinoe fawcetti = test: as above; assay type: cell-based; details: 1% glucose bouillon agar
Description: as §2, §3

Cercospora beticola = test: as above; assay type: cell-based; details: 1% glucose bouillon agar
Description: as §2, §3

Penicilium citrinum = test: as above; assay type: cell-based; details: 1% glucose bouillon agar
Piricularia oryzae = test: microbe, parasite or virus in culture; assay type: cell-based
sarcoma 180 cells [4] = test: Antitumor activity, subcutaneous sarcoma 180, intravenous administration, tumor weight; assay type: in vivo; details: 0.06 mg/mouse i.v., 9 times, 7th to 20th day; tumor weight on 21st day; sarcoma 180 s.c., ICR mice
Description: as §1
Sarcoma 180 cells (1×10^6 cells) were transplanted subcutaneously to each of ICR mice (a group consisting of 5 mice). The compound of Example 1 was injected intravenously to the mice at the single dose rate of 0.06 mg/mouse 9 times over the period of from the 7th day after the transplantation to the 20th day. On the 21th day, the mice were anatomized, and the weight of tumors was measured.

Helminthosporium oryzae = test: Antifungal action, MIC by serial dilution technique; assay type: cell-based; details: Bipolaris oryzae
P 388 leukemia cells = test: Antitumor activity, P 388 leukemia cells mixed with compound and transplanted subcutaneously, tumor weight; assay type: in vivo; details: 1×10^6 P 388 cells mixed with 0.1 g of compound, s.c., CDF1 mice; tumor weight on 10th day
From the text: Antitumor activity of 1,3-dioctyloxypropane-2-yl 2-thiazolioethyl phosphate (Example 3)
P 388 leukemia cells (1×10^6 cells) were mixed with 0.1 g of the compound of Example 3, and transplanted subcutaneously to each of CDF1 mice (a group consisting of 5 mice).

MM46 cells = test: Antitumor activity, intraperitoneal MM46, administration before and after inoculation, survival; assay type: in vivo; details: 5 animals per group; 0.25 mg/mouse i.p., 4 days before and 4 days after 1×10^4 MM46 cells i.p.; C3H/He mice; controls all died within 19 days
Description: Antitumor activity of the compound of Example 9
The compound of Example 9 was intraperitoneally administered to C3H/He mice (5 animals per group) in a dose of 0.25 mg/mouse for 4 consecutive days.
On the 5th day, 1×10^4 MM46 cells were intraperitoneally inoculated into each mouse, and the compound of Example 9 was again administered intraperitoneally to the mice in a dose of 0.25 mg/mouse for 4 days starting from day 1 after inoculation.
The mice in the control group all died within 19 days after tumor implantation, whereas, in the drug-treated group, 3 animals survived on day 60.

Meth A cells = test: Antitumor activity, subcutaneous Meth A, administration on the transplanted portion, tumor weight; assay type: in vivo; details: 0.25 mg/mouse on the transplanted portion once a day for 4 days; Meth A s.c., CDF1 mice; ten days later
Description: Antitumor activity of 1,3-dinonyloxypropane-2-yl 2-trimethylammonioethyl phosphate (Example 9)
Meth A cells (1×10^6 cells per mouse) were transplanted subcutaneously to CDF1 mice (a group consisting of 5 mice). On the other hand, a solution of 0.25 mg/mouse of the compound of Example 9 in 0.05 ml of physilogical saline was given to each of the mice on the portion transplanted with the cells once a day for 4 consecutive days from the 1st day following the transplantation. Ten days later, the tumor tissues were removed, and the weight of tumors was measured.

sarcoma 180 cells [5] = test: Antitumor activity, intraperitoneal sarcoma 180, three administrations, life span; assay type: in vivo, ICR mice
From the text: ICR mice (5 animals per group) were intraperitoneally inoculated with 1×10^5 sarcoma 180 cells per mouse. […] The life span prolonging ratio as compared with the control (no drug treatment) group was 198, and 1 animal survived on day 60.

sarcoma 180 cells [6] = test: Antitumor activity, intraperitoneal sarcoma 180, 9 consecutive days, life span; assay type: in vivo; details: 25 mg/kg i.p., 4×10^5 sarcoma 180 cells i.p., ICR mice
Description: Antitumor activity of 1,3-diheptyloxypropane-2-yl 2-trimethylammonioethyl phosphate (Example 10)
Sarcoma 180 cells (4×10^5 cells per mouse) were transplanted intraperitoneally to ICR mice (a group consisting of 5 mice). The compound of Example 10 was administered intraperitoneally to the mice at the single dose rate of 25 mg/kg for 9 consecutive days from the day following transplantation.

[7] = rat, in vivo, iv
Description: Male 7-week aged Sprague-Dawley rats (weighing 200 to 290 g) were anesthetized by intraperitoneal administration of 60 mg/kg of pentobarbital sodium, and the left carotids (for the measurement of blood pressure) and left femoral veins (for the intravenous administration) were cannulated.

platelet = details: Biochemical and Biophysical Research Communications, 99, 183 (1981); cited from earlier work

SMILES: CCCCCCCCOCC(COP(=O)([O-])OCC[N+](C)(C)C)OCCCCCCCC (stereo not drawn) [2,3-dioctyloxypropyl 2-trimethylammonioethyl phosphate, reference compound]
- rate of life prolongation against the control group (sarcoma 180 cells [1]): 195

SMILES: CCCCCCCCOCC(COCCCCCCCC)OP(=O)([O-])OCC[N+](C)(C)C [Example 1, 1,3-Dioctyloxypropane-2-yl 2-trimethylammonioethyl phosphate]
- MIC (Saccharomyces cerevisiae): 25 µg/mL
- MIC (Mucor spinescens): 12.5 µg/mL
- growth inhibition rate of tumor (sarcoma 180 cells [2]): 54%
- rate of life prolongation against the control group (sarcoma 180 cells [1]): 458
- mice survived 60 days (sarcoma 180 cells [1]; group of 5 mice, 1 mg/mouse i.p., sarcoma 180 i.p.): two
- rate of life span prolongation against the control group (T/C) (sarcoma 180 cells [3]): 225
- MIC (Cladosporium herbarum): 6.25 µg/mL
- MIC (Diaporthe citri): 6.25 µg/mL
- MIC (Botrytis cinerea): 3.12 µg/mL
- MIC (Elsinoe fawcetti): 3.12 µg/mL
- MIC (Cercospora beticola): 6.25 µg/mL
- MIC (Penicilium citrinum): 12.5 µg/mL
- MIC (Piricularia oryzae): 6.25 µg/mL
- growth inhibition rate of tumor (sarcoma 180 cells [4]): 52%
- MIC (Helminthosporium oryzae): 3.12 µg/mL

SMILES: CCCCCCCCOCC(COCCCCCCCC)OP(=O)([O-])OCC[n+]1ccsc1 [Example 3, 1,3-Dioctyloxypropane-2-yl 2-thiazolioethyl phosphate]
- growth inhibition rate of tumor (P 388 leukemia cells): 83%

SMILES: CCCCCCCCCOCC(COCCCCCCCCC)OP(=O)([O-])OCC[N+](C)(C)C [Example 9, 1,3-Dinonyloxypropane-2-yl 2-trimethylammonioethyl phosphate]
- animals survived on day 60 (MM46 cells): 3 animals
- growth inhibition rate of tumor (Meth A cells): 76%
- life span prolonging ratio as compared with the control (sarcoma 180 cells [5]; 0.33 mg/mouse three times (hour 1, day 1, day 2), 1×10^5 sarcoma 180 cells i.p., ICR mice): 198
- animal survived on day 60 (sarcoma 180 cells [5]; 5 animals per group, 0.33 mg/mouse three times, sarcoma 180 i.p.): 1 animal

SMILES: CCCCCCCOCC(COCCCCCCC)OP(=O)([O-])OCC[N+](C)(C)C [Example 10, 1,3-Diheptyloxypropane-2-yl 2-trimethylammonioethyl phosphate]
- rate of life span prolongation against the control group (T/C) (sarcoma 180 cells [6]): 295

SMILES: CCCCCCCCCCCCCCCCCCOCC(COP(=O)([O-])OCC[N+](C)(C)C)OC (stereo not drawn) [compound (XI)]
- blood pressure lowering action (in words) [7]: possesses blood-pressure lowering action
- platelet aggregating action (platelet): has platelet aggregating action
